Experimental data from paper PMC3566764, “Thioester derivatives of the natural product psammaplin A as potent histone deacetylase inhibitors” (Beilstein Journal of Organic Chemistry, 2013).

What was measured:
[1] = tested on: A549 (human lung carcinoma); assay: Cytotoxicity against A549 cell line; assay type: cell-based; conditions: Homo sapiens; A549 cells
Method: (§1) Thioesters 7–9 were assayed against A549, MCF7 and WI38 cell lines, in addition to recombinant human rHDAC1 (class I) and recombinant human HDAC6 (rHDAC6, class II) as previously reported. Psammaplin A (3), prereduced psammaplin A thiol (4), and SAHA (1) were included as control compounds. IC50^6/1 is defined by the ratio IC50^HDAC6/IC50^HDAC1 and was used as an indicator of isoform selectivity in vitro.

[2] = tested on: MCF7 (human breast carcinoma); assay: Cytotoxicity against MCF7 cell line; assay type: cell-based; conditions: MCF7 cells
Method: as §1

[3] = tested on: WI38 (normal human lung fibroblast); assay: Cytotoxicity against WI38 cell line; assay type: cell-based; conditions: Homo sapiens, WI-38; WI38 cells
Method: as §1

[4] = target: T1, rHDAC1 (Homo sapiens, UniProt Q13547); assay: rHDAC1 inhibition, coupled Boc-Lys(Ac)-AMC/trypsin fluorescence assay; assay type: biochemical
T1 construct: purchased BPS Bioscience (US)
T1 sequence (Q13547 whole entry): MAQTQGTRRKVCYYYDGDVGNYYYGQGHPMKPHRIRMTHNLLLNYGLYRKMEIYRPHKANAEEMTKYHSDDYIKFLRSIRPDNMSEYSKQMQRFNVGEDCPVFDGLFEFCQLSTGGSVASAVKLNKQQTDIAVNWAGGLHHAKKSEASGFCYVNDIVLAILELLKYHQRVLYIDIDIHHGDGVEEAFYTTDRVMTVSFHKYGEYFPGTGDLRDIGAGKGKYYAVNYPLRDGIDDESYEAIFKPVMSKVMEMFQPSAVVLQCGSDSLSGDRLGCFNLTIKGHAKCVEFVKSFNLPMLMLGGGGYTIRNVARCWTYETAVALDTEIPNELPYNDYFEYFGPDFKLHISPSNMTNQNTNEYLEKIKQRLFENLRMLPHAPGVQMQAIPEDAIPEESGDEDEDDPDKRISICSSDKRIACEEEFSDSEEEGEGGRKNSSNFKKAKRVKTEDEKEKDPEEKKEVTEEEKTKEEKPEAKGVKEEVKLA
Method: (§2) HDAC assays were performed as previously reported. The recombinant human histone deacetylases rHDAC1 and rHDAC6 were obtained from BPS Bioscience (US).
(§3) All reactions were performed in black half area 96-well microplates (Greiner bio-one, Germany) according to the general procedure described by Wegener et al. with some minor modifications. […] The buffer components were purchased from Merck (Germany), Roth (Germany) and Sigma-Aldrich.
(§4) The enzyme reaction was initiated by the addition of Boc-Lys(Ac)-AMC substrate. The reaction mixture was incubated at 30 °C in the dark and stopped after 60 min by the addition of a mixture of 70 µM trypsin and 200 nM SAHA. The fluorescence of AMC served as an indirect measure of HDAC enzyme activity. The kinetics of AMC release was measured on a PolarStar fluorescence plate reader (BMG) with an excitation wavelength of 340 nm and an emission wavelength of 460 nm. Complete cleavage of deacetylated Boc-Lys-AMC by trypsin was achieved after about 10–15 min. The fluorescence intensity of the plateau was averaged over at least 5 min and normalized with respect to the percentage of enzyme activity. Finally, the normalized fluorescence intensities were plotted versus the concentration of test compounds and fitted to a four-parameter logistic model to calculate the IC50 values.

[5] = target: T2, recombinant human HDAC6 (rHDAC6) (Homo sapiens, UniProt Q9UBN7); assay: rHDAC6 inhibition, coupled Boc-Lys(Ac)-AMC/trypsin fluorescence assay; assay type: biochemical; conditions: purified recombinant human HDAC6
T2 construct: purchased BPS Bioscience (US)
T2 sequence (Q9UBN7 1-1215): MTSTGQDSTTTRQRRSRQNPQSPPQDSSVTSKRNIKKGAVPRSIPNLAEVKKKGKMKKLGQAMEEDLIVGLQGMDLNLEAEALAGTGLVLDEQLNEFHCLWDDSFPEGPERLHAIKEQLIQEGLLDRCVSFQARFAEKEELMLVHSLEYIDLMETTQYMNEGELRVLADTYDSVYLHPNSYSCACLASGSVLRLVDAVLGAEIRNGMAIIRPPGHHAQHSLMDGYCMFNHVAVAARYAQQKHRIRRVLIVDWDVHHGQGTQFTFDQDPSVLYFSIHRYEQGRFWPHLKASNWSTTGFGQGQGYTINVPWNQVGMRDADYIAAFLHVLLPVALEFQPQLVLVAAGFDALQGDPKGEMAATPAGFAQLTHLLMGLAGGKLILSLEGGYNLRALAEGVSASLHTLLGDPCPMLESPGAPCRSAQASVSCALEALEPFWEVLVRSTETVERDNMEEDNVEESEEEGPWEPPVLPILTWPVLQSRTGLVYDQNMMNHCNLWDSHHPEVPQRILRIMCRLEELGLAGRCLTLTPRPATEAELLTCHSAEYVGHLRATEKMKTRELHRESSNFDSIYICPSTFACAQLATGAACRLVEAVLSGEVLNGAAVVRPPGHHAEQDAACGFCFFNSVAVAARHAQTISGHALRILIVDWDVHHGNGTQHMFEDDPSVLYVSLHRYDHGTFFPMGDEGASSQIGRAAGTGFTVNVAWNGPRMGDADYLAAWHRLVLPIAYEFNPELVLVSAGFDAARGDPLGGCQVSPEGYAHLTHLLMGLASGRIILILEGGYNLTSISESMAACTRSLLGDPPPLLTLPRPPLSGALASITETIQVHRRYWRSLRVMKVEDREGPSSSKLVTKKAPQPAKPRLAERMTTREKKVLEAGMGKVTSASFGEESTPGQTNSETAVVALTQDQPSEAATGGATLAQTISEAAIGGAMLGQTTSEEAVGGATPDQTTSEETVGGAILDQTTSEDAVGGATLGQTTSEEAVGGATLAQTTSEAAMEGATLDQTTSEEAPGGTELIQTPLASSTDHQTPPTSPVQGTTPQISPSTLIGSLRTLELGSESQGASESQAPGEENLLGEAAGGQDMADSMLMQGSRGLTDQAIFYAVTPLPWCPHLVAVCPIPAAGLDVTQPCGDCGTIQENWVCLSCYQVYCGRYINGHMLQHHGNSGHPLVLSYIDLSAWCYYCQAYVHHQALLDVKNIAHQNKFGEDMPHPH
Method: as §2, §3, §4

[6] = Thioester hydrolysis in assay buffer, thiol detection with fluorescent coumarin probe 10; assay type: physicochemical; conditions: incubation with probe 10 in buffer FB-188, up to 100 minutes
From the text: We therefore undertook preliminary studies to attempt to shed light on the reasons for the high potency of our thioesters in the enzymatic assays. We first envisaged that our assay buffer could potentially be responsible for thioester hydrolysis. We prepared and used synthetic probe 10 [30] (Scheme 3) in order to test this hypothesis. Coumarin-based probe 10 is known to react extremely fast with thiols through a Michael addition reaction. While the fluorescence of 10 is efficiently quenched by the intramolecular double bond, upon reaction with thiols, a highly fluorescent conjugate 11 is produced.
[formula] […] Bottom left: Fluorescence intensity at 465 nm (Y-axis, A.U.) as a function of the number of equivalents of 2-mercaptoethanol added (X-axis). Bottom right: Fluorescence intensity at 465 nm (Y-axis, A.U.) as a function of the incubation time (X-axis, minutes) of probe 10 with thioester 8.
Control experiments were performed using 2-mercaptoethanol as the thiol source. Fluorescence spectra of 10 (10^−6 M 10 in buffer FB-188 [31]) were recorded after incubation with 0, 0.2, 0.4, 0.6, 0.8, 1.0 and 1.5 equiv 2-mercaptoethanol (Scheme 3, bottom left). As expected, a linear relationship between fluorescence intensity and the concentration of thiol could be observed between 0 and 1.0 equiv, confirming the sensitivity and reliability of this system at low concentration. […]

COc1ccc(C/C(=N\O)C(=O)NCCSC(C)=O)cc1Br [Compound 8, (E)-(S)-2-(3-(3-Bromo-4-methoxyphenyl)-2-(hydroxyimino)propanamido)ethyl ethanethioate]
IC50 [1]: 8.3 µM | IC50 [2]: 3.2 µM | IC50 [3]: 5.2 µM | IC50^6/1 (ratio IC50 HDAC6/IC50 HDAC1) ([4]; isoform selectivity in vitro): 4560 | IC50 ([4]; purified recombinant human HDAC1): 0.005 µM | times less potent than the corresponding free thiol analogue against rHDAC1 ([4]; thioester vs free thiol): 2.5 times | IC50 [5]: 23 µM | thiol formation (thioester hydrolysis) in assay buffer [6]: no evidence of thiol formation
